Here are results for 1 compound from ChEMBL document CHEMBL5537111, “Structure and function of SARS-CoV and SARS-CoV-2 main proteases and their inhibition: A comprehensive review” (Eur J Med Chem, 2023).

This experiment can be described thus: Inhibition of SARS-CoV-2 3CL protease Q189A mutant by FRET assay. Details: species or system Severe acute respiratory syndrome coronavirus 2.

What is called IC50 is the concentration needed to halve the response being measured. The compound `CC1(C)CCC(CN2CCN(c3ccc(C(=O)NS(=O)(=O)c4ccc(NCC5CCOCC5)c([N+](=O)[O-])c4)c(Oc4cnc5[nH]ccc5c4)c3)CC2)=C(c2ccc(Cl)cc2)C1` [VENETOCLAX] showed an IC50 of 3.18 µM.
